The subject of this assay is cotton aphid (CA) Aphis gossypii. The assay can be described thus: Cotton aphid track-sprayer test on cotton: Compound A or imidacloprid with glufosinate (Liberty) and AMS (Example XVII). Format: in vivo. Conditions: for % control / % control Negatives to zero / Colby Predicted Values: Rep 1-6. As to the method:
Glyphosate resistant cotton plants (Gossypium hirsutum, cv ‘DP493’) were trimmed to 1 true leaf and infested with mixed stages of cotton aphid (CA) Aphis gossypii 24 h prior to application. Mixed developmental stage CA were infested onto the upper surface of each treated leaf by transferring infested foliage from an insectary colony. Each plant was infested with approximately equal numbers of CA based on visual estimation of aphid density on the infested material. Infested plants were held in the growth chamber (L:D 16:8 and 25° C.). Glufosinate (Liberty®, Bayer CropScience, Monheim am Rhein, Germany) was mixed with water at a rate equivalent to 5 ml/L (0.4 qt/Ac). […] High rate Compound A concentrations were created by diluting Compound A technical material with acetone to achieve a 10 ppm solution. […] […] […] Nozzle height above the canopy was held constant at ca. 30 cm. Plants were evaluated after 3 days from the time of infestation by counting all live cotton aphids on each plant.
TABLE 6 contains the calculated Colby values for combinations of treatments as well as the outcome of statistical evaluations between predicted (Colby) and actual measured values. These T-test statistics were only calculated for the 0.2 and 0.05 g/Ha rates. […] These same trends were apparent when Compound A was applied with both glufosinate and AMS.

Setting [1] is: 0.0125 g In./Ha + glufosinate 0.005 ml/ml.
[2] abbreviates: 0.0125 g In./Ha + glufosinate 0.005 ml/ml + AMS 18 mg/ml.
[3] abbreviates: 0.0125 g In./Ha, combination with glufosinate.
Setting [4] is: 0.05 g In./Ha + glufosinate 0.005 ml/ml.
[5] abbreviates: 0.05 g In./Ha + glufosinate 0.005 ml/ml + AMS 18 mg/ml.
[6] abbreviates: 0.05 g In./Ha, combination with glufosinate.
Setting [7] is: 0.2 g In./Ha + glufosinate 0.005 ml/ml.
The mark [8] stands for this setting: 0.2 g In./Ha + glufosinate 0.005 ml/ml + AMS 18 mg/ml.
Setting [9] is: 0.2 g In./Ha, combination with glufosinate.
The mark [10] stands for this setting: 0.2 g In./Ha, no glufosinate, no AMS.

Several values for one entry are separate records, joined by “and”; a condition that tells them apart may be missing. Equal entries are not always repeated.

Turning to `CC(c1ccc(C(F)(F)F)nc1)S(C)(=O)=NC#N` (stereo not drawn) [Compound A, [1-(6-Trifluoromethylpyridin-3-yl)ethyl](methyl)-oxido-λ^4-sulfanylidenecyanamide], the “% control AVE” value under setting [1] amounted to 57.9%; the “% control AVE” value under setting [2] is 85.5%; the “% control AVE” value (0.0125 g In./Ha, no glufosinate, no AMS) is given as 22.9%; the “% control AVE” value under setting [4] is listed as 82.1%; the “% control AVE” value under setting [5] amounted to 91.8%; the “% control AVE” value (0.05 g In./Ha, no glufosinate, no AMS) came out at 60.2%. The “% control AVE” value under setting [7] is reported as 95.3%, the “% control AVE” value under setting [8] is 96.6% and the “% control AVE” value under setting [10] is on record as 87.0%. For the same compound, the “Colby Predicted Values Ave” value was 48.7 under setting [3]; 56.8 (0.0125 g In./Ha, combination with glufosinate and AMS); 63.4 under setting [6]; 67.4 (0.05 g In./Ha, combination with glufosinate and AMS); 85.7 under setting [9]; 87.7 (0.2 g In./Ha, combination with glufosinate and AMS). Further, the “% control” value by setting is: under setting [2], 94.7% and 89.7% and 68.6% and 90.7% and 83.8% and 95.5%; under setting [4], 81.3% and 80.2% and 72.9% and 99.2% and 77.0% and 89.4%; under setting [5], 89.3% and 96.6% and 77.1% and 97.5% and 98.6% and 80.3%; under setting [7], 97.3% and 95.7% and 93.2% and 94.6% and 86.4%; under setting [8], 98.7% and 94.0% and 94.3% and 97.5% and 98.6% and 93.9%; under setting [10], 77.3% and 87.9% and 91.4% and 86.4% and 91.9% and 68.2%. Also, the “% control Negatives to zero” value is 94.7% and 89.7% and 68.6% and 90.7% and 83.8% and 93.9% under setting [2]; 81.3% and 80.2% and 72.9% and 99.2% and 77.0% and 89.4% under setting [4]; 89.3% and 96.6% and 77.1% and 97.5% and 98.6% and 80.3% under setting [5]; 97.3% and 95.7% and 93.2% and 94.6% and 86.4% under setting [7]; 98.7% and 94.0% and 94.3% and 97.5% and 98.6% and 93.9% under setting [8]. Also, the “Colby Predicted Values” by setting is: (0.2 g In./Ha, first block of lines (combination with glufosinate)) 77.3 and 91.2 and 95.9 and 90.1 and 91.9 and 68.2; (0.2 g In./Ha, second block of lines (combination with glufosinate and AMS)) 90.0 and 93.9 and 95.3 and 87.0 and 91.9 and 68.2.

For the compound `O=[N+]([O-])NC1=NCCN1Cc1ccc(Cl)nc1` [Imidacloprid, imidacloprid, reference compound], the “% control AVE” value under setting [1] worked out at 66.5%, the “% control AVE” value under setting [4] was found to be 51.2% and the “% control AVE” value under setting [7] is on record as 58.2%. Besides, the “Colby Predicted Values Ave” value under setting [3] is 53.6, the “Colby Predicted Values Ave” value under setting [6] is 53.8 and the “Colby Predicted Values Ave” value under setting [9] is reported as 59.6. Moreover, the “synergy assessment (measured vs predicted Colby values)” value (insecticide applied together with glufosinate) is “not different from the calculated additive values”; the “synergy assessment (measured vs predicted Colby values)” value (insecticide with glufosinate and AMS) is “No evidence of synergy”.

Values taken from US20130288897A1, “SYNERGISTIC PESTICIDAL COMPOSITIONS” (Dow AgroSciences LLC, priority 2012, published 2013).
